Assay results: patent publication US20070179810A1, “Controls for antimicrobial use and infection” (priority 2006, published 2007)

Legend:
Klebsiella pneumoniae = test: Susceptibility of hospital Klebsiella pneumoniae isolates (annual antibiogram); format: cell-based; conditions: for Change in susceptibility of Klebsiella pneumoniae: 218 isolates, 2000 vs 2002 and 2003, T test; for Percent Susceptible in 2000 / Percent Susceptible in 2002 / Percent Susceptible in 2003: K. pneumoniae isolates; for Percent Susceptible in 2000: 2000, year prior to program; for Percent Susceptible in 2002 / Percent Susceptible in 2003: * = statistically significant change compared to 2000
Text: (§1) The Microbiology Department collected data on the susceptibility of major pathogens and published an annual antibiograrn, a copy of which was placed in each hospital chart as well as sent to all physicians. […] T tests were used in determining statistical significance between the years.

Proteus mirahilis = test: Susceptibility of Proteus mirabilis isolates (annual antibiogram); format: cell-based; conditions: 133 isolates; 2000 vs 2002 and 2003
Text: as §1

[1] = tested on: non-urinary Pseuclomonas aeruginosa; test: Susceptibility of non-urinary Pseudomonas aeruginosa isolates (annual antibiogram); format: cell-based; conditions: 338 isolates; 2000 vs 2002 and 2003
Text: as §1

Serratia marcescens = test: Susceptibility of Serratia marcescens isolates (annual antibiogram); format: cell-based; conditions: 109 isolates; 2000 vs 2002 and 2003
Text: as §1

non-urinary E. coli = test: Susceptibility of non-urinary E. coli isolates (annual antibiogram); format: cell-based; conditions: 548 isolates
Text: as §1

Enterobucter cloucue = test: Susceptibility of Enterobacter cloacae isolates (annual antibiogram); format: cell-based; conditions: 134 isolates; 2000 vs 2002 and 2003
Text: as §1

urinary E. coli = test: Susceptibility of urinary E. coli isolates (annual antibiogram); format: cell-based; conditions: 1615 isolates
Text: as §1

Pseudomonas aeruginosa = tested on: Pseudomonas aeruginosa
Text: as §1

[2] = 2000, last year before the study

Compound	Change in susceptibility of Klebsiella pneumoniae (Klebsiella pneumoniae)	Percent Susceptible in 2000 (Klebsiella pneumoniae) [%]	Percent Susceptible in 2002 (Klebsiella pneumoniae)	Percent Susceptible in 2003 (Klebsiella pneumoniae)	further results
Gentamicin	statistically significant increase in susceptibility	83	99* Percent	96%	–
CO/N=C(\C(=O)N[C@@H]1C(=O)N2C(C(=O)[O-])=C(C[N+]3(C)CCCC3)CS[C@H]12)c1csc(N)n1 [Cefepime]	did not reach statistical significance	94	98%	98%	Change in susceptibility of Proteus mirabilis (Proteus mirahilis): no statistically significant change; Change in susceptibility of non-urinary Pseudomonas aeruginosa [1]: no statistically significant change; Change in susceptibility of Serratia marcescens (Serratia marcescens): no statistically significant change; Susceptibility of non-urinary E. coli, before (non-urinary E. coli; [2]): 100%; Susceptibility of non-urinary E. coli, after (non-urinary E. coli; during the study (2002 and 2003), significant decrease): 98%
Trimethoprirn/Sulfa	statistically significant increase in susceptibility	86	97* Percent	93%	–
CC(C)(O/N=C(\C(=O)N[C@@H]1C(=O)N2C(C(=O)[O-])=C(C[n+]3ccccc3)CS[C@H]12)c1csc(N)n1)C(=O)O [Ceftazidime]	statistically significant increase in susceptibility	85	99* Percent	96* Percent	Change in susceptibility of Enterobacter cloacae (Enterobucter cloucue): no statistically significant change; Change in susceptibility of Proteus mirabilis (Proteus mirahilis): no statistically significant change; Change in susceptibility of non-urinary Pseudomonas aeruginosa [1]: no statistically significant change; Change in susceptibility of Serratia marcescens (Serratia marcescens): no statistically significant change; Susceptibility of urinary E. coli, before (urinary E. coli; [2]): 100%; Susceptibility of urinary E. coli, after (urinary E. coli; during the study (2002 and 2003), significant fall): 98%; Change in susceptibility of non-urinary E. coli (non-urinary E. coli; 2000 vs 2002 and 2003): not significant
NC[C@H]1O[C@H](O[C@H]2[C@H](O)[C@@H](O[C@H]3O[C@H](CO)[C@@H](O)[C@H](N)[C@H]3O)[C@H](N)C[C@@H]2N)[C@H](N)C[C@@H]1O [Tobramycin]	statistically significant increase in susceptibility	90	99* Percent	96%	–
CO/N=C(\C(=O)N[C@@H]1C(=O)N2C(C(=O)O)=C(CSc3nc(=O)c(=O)[nH]n3C)CS[C@H]12)c1csc(N)n1 [Ceftriaxone]	statistically significant increase in susceptibility	85	98* Percent	96* Percent	–
C[C@@H](O)[C@H]1C(=O)N2C(C(=O)O)=C(SCCN=CN)C[C@H]12 [imipenem]	–	–	–	–	Pseudomonas aeruginosa susceptibility in 2000 (Pseudomonas aeruginosa; 2000): 93%; Pseudomonas aeruginosa susceptibility in 2002 (Pseudomonas aeruginosa; 2002, significant decrease): 83%; Pseudomonas aeruginosa susceptibility in 2003 (Pseudomonas aeruginosa; 2003): 91%
C[C@H]1COc2c(N3CCN(C)CC3)c(F)cc3c(=O)c(C(=O)O)cn1c23 [Levofloxacin]	–	82	99* Percent	96* Percent	–
CO/N=C(\C(=O)N[C@@H]1C(=O)N2C(C(=O)O)=C(COC(N)=O)CS[C@H]12)c1ccco1 [Cefuroxime]	statistically significant increase in susceptibility	78	94* Percent	93* Percent	–
